# Measurements taken from US20200214296A1, “MICROBICIDAL COMPOSITION” (DDP Specialty Electronic Materials US, Inc., priority 2017, published 2020).
# Tests used:
# [1] = tested on: Pseudomonas aeruginosa & E. coli mix; assay: Synergy in the planktonic phase, biocide challenge with resazurin regrowth readout; format: cell-based, Pseudomonas aeruginosa (DSM: 50071) and E. coli (DSM: 1576); settings: P. aeruginosa/E. coli, after 48 hours, phosphate buffer pH 7.3, used alone
# Experimental: Pseudomonas aeruginosa (DSM: 50071) and E. coli (DSM: 1576) cultures were separately prepared from glycerol stocks; first they were streak plated and validated with a microscope. Single colonies were picked and shake flasks were inoculated and left overnight at 37° C. (TSB medium) to produce the initial inoculum. The challenge block (a 96 wells plate) was prepared using phosphate buffer at pH 7.3, (0.0027M potassium chloride, 0.137 M sodium chloride). The Biocide challenging was done at 30° C. Inoculation took place at the start of the experiments and after 48 hours a re-inoculation was done. Challenging was monitored up to 7 days in total. In Table 1, the concentrations used for the synergy experiments are listed. Each experiment was done in triplicate. […] The recovery plates were subsequently read (checked for microbial growth) at 24 and 48 hours after addition of the culture. Plate reading took place twice for each time point, to look at potential changes. Reading took place utilizing separate 96 wells plates pre filled with fresh media. […] This was done in triplicate for each point (the triplicate is already present in the biocide block viz. each point is truly determined in triplicate). […] Ranking was done per average value of three data points determined per experiment. (Recorded in log regrowth). […]
# Thermus thermophilus = assay: as above; format: cell-based, Thermus thermophilus (DSM: 579)
# Experimental: The inoculum prepared added between to 1*10^8 to 1*10^9 total cells/ml (in each well). At several timepoints 20 microliter aliquots of each treatment (well) were added to 96 well plates with TSB+Resazurin. These 96 well plates were filled with 'recovery' media (TSB 30 grams/liter). One of such plates was prepared for each column of the assay block. 180 μl recovery media was added to each well of a 96 well plate, except for column 1 of the recovery plate. This column was filled with 180 μl of one column of the assay block. The last three columns on the recovery plate were not pipetted. These columns represented the no template control for verifying proper plate set up and data reliability. […] The recovery plates were subsequently read (checked for microbial growth) at 24 and 48 hours after addition of the culture. Plate reading took place twice for each time point, to look at potential changes. Reading took place utilizing separate 96 wells plates pre filled with fresh media. […] This was done in triplicate for each point (the triplicate is already present in the biocide block viz. each point is truly determined in triplicate). […] Ranking was done per average value of three data points determined per experiment. (Recorded in log regrowth). […]
# [2] = tested on: Pseudomonas aeruginosa biofilm; assay: Biofilm dissipation synergy on MBEC plate pegs; format: cell-based; settings: P. aeruginosa biofilm, 24 hour contact time, 5 day regrowth; pass = total eradication of the biofilm
# Experimental: One measure of synergism is the industrially accepted method described by Kull, […]. and Mayer, R. L., in Applied Microbiology 9:538-541 (1961), using the ratio determined by the formula: Qa/QA+Qb/QB=Synergy Index (“SI”) […] A Pseudomonas aeruginosa culture was prepared from glycerol stocks. First, the culture was streak plated. Single colonies were selected and shake flasks were inoculated and left overnight at 37° C. (TSB medium). The culture was diluted in phosphate buffer pH 7.3 1:1000000 prior to set up the biofilm plate Biofilm was developed overnight on P&G MBEC plates. The 96 well plates were covered with the lid holding the pegs partially submerged in the growth media. Biofilm was developed on the pegs leading to a total cell amount of 7*10^10 cells per peg. The top plates (with the pegs) were then subsequently washed and then placed into a 96 well challenge plate with the biocidal components in the given amounts. […] The contact time of the biofilms with the microbicidal mix was 24 hours. After the challenging, the biofilms were gently washed, sonicated from the pegs into recovery media (TSB 30 g/l, with resazurin, 0.01%), from these wells directly after sonication 10× dilution series were made on separate plates. These were left to recover for 3 to 5 days at 30° C. […] It could then be back-calculated how many cells remained after challenging of the biofilm with biocides. […]
smiles,measurement,setting,value
"O=CC=O [Glyoxal, glyoxal]",Glyoxal standalone 48 h pass,[1],≥2000 ppm
same,Glyoxal standalone 48 h pass,"Thermus thermophilus; T. thermophilus, planktonic, after 48 hours, 60° C., standard ocean matrix salinity 2%, used alone",40 ppm
same,Sensitivity of Thermus thermophilus vs. Pseudomonas aeruginosa and E. coli,"Thermus thermophilus; comparison in words, footnote of Table 2",more sensitive
same,Glyoxal (standalone pass),[2],1280 ppm
